Measured values as given in patent US8278452B2, “Heterocyclic compounds and compositions as c-kit and PDGFR kinase inhibitors” (IRM LLC, priority 2008, dated 2012).

System: Mo7e cells which endogenously express c-kit
Assay: Mo7e assay: inhibition of SCF dependent proliferation (MTT)
Format: cell-based
Conditions: Table 1; SCF stimulated Mo7e cells, 48 hours, MTT
Description: The compounds described herein are tested for inhibition of SCF dependent proliferation using Mo7e cells which endogenously express c-kit in a 96 well format. Two-fold serially diluted test compounds (Cmax=10 μM) are evaluated for their antiproliferative activity of Mo7e cells stimulated with human recombinant SCF. After 48 hours of incubation at 37° C., cell viability is measured by using a MTT colorimetric assay from Promega. IC50 values for compounds of the invention are quoted in table 1, supra.

`Cc1cc2c(cn1)cc(-c1cc(Nc3cc(-c4ccc(Br)cn4)on3)ccc1C)c(=O)n2C` [Compound D6] and `Cc1cc2c(cn1)cc(-c1cc(Nc3cc(-c4ccc(Cl)nc4)on3)ccc1C)c(=O)n2C` [Compound D12] are within 1.5-fold of each other in IC50: 229 nM for the first, 198 nM for the second.

Compared with `Cc1cc2c(cn1)cc(-c1cc(Nc3noc(C4CCCC4)n3)ccc1C)c(=O)n2C` [Compound A15, 3-{5-[(5-cyclopentyl-1,2,4-oxadiazol-3-yl)amino]-2-methylphenyl}-1,7-dimethyl-1,2-dihydro-1,6-naphthyridin-2-one], `Cc1cc2c(cn1)cc(-c1cc(Nc3noc(C4CCOCC4)n3)ccc1C)c(=O)n2C` [Compound A33, 1,7-dimethyl-3-(2-methyl-5-{[5-(oxan-4-yl)-1,2,4-oxadiazol-3-yl]amino}phenyl)-1,2-dihydro-1,6-naphthyridin-2-one] is 16-fold higher in IC50: 28 nM for the first, 444 nM for the second. The first is the more potent here.

Compared with `Cc1cc2c(cn1)cc(-c1cc(Nc3noc(-c4ccc(F)cc4)n3)ccc1C)c(=O)n2C` [Compound A24, 3-(5-{[5-(4-fluorophenyl)-1,2,4-oxadiazol-3-yl]amino}-2-methylphenyl)-1,7-dimethyl-1,2-dihydro-1,6-naphthyridin-2-one], `Cc1cc2c(cn1)cc(-c1cc(Nc3noc(-c4ccc(C#N)cc4)n3)ccc1C)c(=O)n2C` [Compound A37, 4-(3-{[3-(1,7-dimethyl-2-oxo-1,2-dihydro-1,6-naphthyridin-3-yl)-4-methylphenyl]amino}-1,2,4-oxadiazol-5-yl)benzonitrile] is 1.6-fold higher in IC50: 36 nM for the first, 57 nM for the second. The first is the more potent here.

`COc1ccc(-c2nc(Nc3ccc(C)c(-c4cc5cnc(C)cc5n(C)c4=O)c3)no2)nc1` [Compound A103, 3-(5-{[5-(5-methoxypyridin-2-yl)-1,2,4-oxadiazol-3-yl]amino}-2-methylphenyl)-1,7-dimethyl-1,2-dihydro-1,6-naphthyridin-2-one] and `Cc1cc2c(cn1)cc(-c1cc(Nc3noc(-c4ccc(F)cn4)n3)ccc1C)c(=O)n2C` [Compound A25, 3-(5-{[5-(5-fluoropyridin-2-yl)-1,2,4-oxadiazol-3-yl]amino}-2-methylphenyl)-1,7-dimethyl-1,2-dihydro-1,6-naphthyridin-2-one] are the same in IC50: 82 nM for the first, 82 nM for the second.

First: Cc1cc2c(cn1)cc(-c1cc(Nc3noc(-c4ccc(C(F)(F)F)nc4)n3)ccc1C)c(=O)n2C [Compound A4, 1,7-dimethyl-3-[2-methyl-5-({5-[6-(trifluoromethyl)pyridin-3-yl]-1,2,4-oxadiazol-3-yl}amino)phenyl]-1,2-dihydro-1,6-naphthyridin-2-one]
Second: Cc1cc2c(cn1)cc(-c1cc(Nc3noc(-c4ccc(C(C)(F)F)nc4)n3)ccc1C)c(=O)n2C [Compound A88, 3-[5-({5-[6-(1,1-difluoroethyl)pyridin-3-yl]-1,2,4-oxadiazol-3-yl}amino)-2-methylphenyl]-1,7-dimethyl-1,2-dihydro-1,6-naphthyridin-2-one]
The IC50 of the first is 1.8-fold higher: 472 nM for the first, 259 nM for the second.

`Cc1cc2c(cn1)cc(-c1cc(Nc3noc(C4CC(C)(O)C4)n3)ccc1C)c(=O)n2C` (centres unmarked) [Compound A84, 3-(5-{[5-(3-hydroxy-3-methylcyclobutyl)-1,2,4-oxadiazol-3-yl]amino}-2-methylphenyl)-1,7-dimethyl-1,2-dihydro-1,6-naphthyridin-2-one] and `Cc1cc2c(cn1)cc(-c1cc(Nc3noc(C4CCC(O)C4)n3)ccc1C)c(=O)n2C` (centres unmarked) [Compound A73, 3-(5-(5-(3-hydroxycyclopentyl)-1,2,4-oxadiazol-3-ylamino)-2-methylphenyl)-1,7-dimethyl-1,6-naphthyridin-2(1H)-one] are within 1.5-fold of each other in IC50: 176 nM for the first, 178 nM for the second.

`Cc1cc2c(cn1)cc(-c1cc(Nc3noc(-c4ccc(OC(F)(F)F)cc4)n3)ccc1C)c(=O)n2C` [Compound A41, 1,7-dimethyl-3-[2-methyl-5-({5-[4-(trifluoromethoxy)phenyl]-1,2,4-oxadiazol-3-yl}amino)phenyl]-1,2-dihydro-1,6-naphthyridin-2-one] and `Cc1cc2c(cn1)cc(-c1cc(Nc3noc(-c4ccccc4)n3)ccc1C)c(=O)n2C` [Compound A7, 1,7-dimethyl-3-(2-methyl-5-(5-phenyl-1,2,4-oxadiazol-3-ylamino)phenyl)-1,6-naphthyridin-2(1H)-one] are within 1.5-fold of each other in IC50: 53 nM for the first, 76 nM for the second.

Compared with `Cc1cc2c(cn1)cc(-c1cc(Nc3noc(C(C)Oc4ccccc4)n3)ccc1C)c(=O)n2C` (centres unmarked) [Compound A96, 1,7-dimethyl-3-(2-methyl-5-{[5-(1-phenoxyethyl)-1,2,4-oxadiazol-3-yl]amino}phenyl)-1,2-dihydro-1,6-naphthyridin-2-one], `CO[C@@H](C)c1nc(Nc2ccc(C)c(-c3cc4cnc(C)cc4n(C)c3=O)c2)no1` [Compound A76, (S)-3-(5-(5-(1-methoxyethyl)-1,2,4-oxadiazol-3-ylamino)-2-methylphenyl)-1,7-dimethyl-1,6-naphthyridin-2(1H)-one] is 3-fold lower in IC50: 419 nM for the first, 142 nM for the second.

Compared with `Cc1cc2c(cn1)cc(-c1cc(Nc3noc([C@H]4CCCO4)n3)ccc1C)c(=O)n2C` [Compound A75, 1,7-dimethyl-3-[2-methyl-5-({5-[(2R)-oxolan-2-yl]-1,2,4-oxadiazol-3-yl}amino)phenyl]-1,2-dihydro-1,6-naphthyridin-2-one], `Cc1cc2c(cn1)cc(-c1cc(Nc3noc(C4CCOC4)n3)ccc1C)c(=O)n2C` (centres unmarked) [Compound A78, 1,7-dimethyl-3-(2-methyl-5-{[5-(oxolan-3-yl)-1,2,4-oxadiazol-3-yl]amino}phenyl)-1,2-dihydro-1,6-naphthyridin-2-one] is 3-fold higher in IC50: 40 nM for the first, 120 nM for the second.

`Cc1cc2c(cn1)cc(-c1cc(Nc3noc(-c4cccnc4)n3)ccc1C)c(=O)n2C` [Compound A10, 1,7-dimethyl-3-(2-methyl-5-{[5-(pyridin-3-yl)-1,2,4-oxadiazol-3-yl]amino}phenyl)-1,2-dihydro-1,6-naphthyridin-2-one] and `Cc1cc2c(cn1)cc(-c1cc(Nc3noc(-c4ccc(Cl)nc4)n3)ccc1C)c(=O)n2C` [Compound A1, 3-(5-{[5-(6-chloropyridin-3-yl)-1,2,4-oxadiazol-3-yl]amino}-2-methylphenyl)-1,7-dimethyl-1,2-dihydro-1,6-naphthyridin-2-one] are within 1.5-fold of each other in IC50: 145 nM for the first, 100 nM for the second.

`Cc1cc2c(cn1)cc(-c1cc(Nc3noc(-c4cccc(O)n4)n3)ccc1C)c(=O)n2C` [Compound A42, 3-(5-{[5-(6-hydroxypyridin-2-yl)-1,2,4-oxadiazol-3-yl]amino}-2-methylphenyl)-1,7-dimethyl-1,2-dihydro-1,6-naphthyridin-2-one] and `Cc1cc2c(cn1)cc(-c1cc(Nc3noc(-c4cccc(Cl)n4)n3)ccc1C)c(=O)n2C` [Compound A49, 3-(5-{[5-(6-chloropyridin-2-yl)-1,2,4-oxadiazol-3-yl]amino}-2-methylphenyl)-1,7-dimethyl-1,2-dihydro-1,6-naphthyridin-2-one] are within 1.5-fold of each other in IC50: 265 nM for the first, 333 nM for the second.

Going from `COc1ccc(-c2nc(Nc3ccc(C)c(-c4cc5cnc(C)cc5n(C)c4=O)c3)no2)cn1` [Compound A87, 3-(5-{[5-(6-methoxypyridin-3-yl)-1,2,4-oxadiazol-3-yl]amino}-2-methylphenyl)-1,7-dimethyl-1,2-dihydro-1,6-naphthyridin-2-one] to `Cc1cncc(-c2nc(Nc3ccc(C)c(-c4cc5cnc(C)cc5n(C)c4=O)c3)no2)c1` [Compound A53, 1,7-dimethyl-3-(2-methyl-5-{[5-(5-methylpyridin-3-yl)-1,2,4-oxadiazol-3-yl]amino}phenyl)-1,2-dihydro-1,6-naphthyridin-2-one], the IC50 rises from 95 nM to 427 nM (4.5-fold).

First: Cc1cc2c(cn1)cc(-c1cc(Nc3nc(-c4ccccc4)no3)ccc1C)c(=O)n2C [Compound E1, 1,7-dimethyl-3-{2-methyl-5-[(3-phenyl-1,2,4-oxadiazol-5-yl)amino]phenyl}-1,2-dihydro-1,6-naphthyridin-2-one]
Second: Cc1cc2c(cn1)cc(-c1cc(Nc3noc(-c4ccccc4C)n3)ccc1C)c(=O)n2C [Compound A16, 1,7-dimethyl-3-(2-methyl-5-{[5-(2-methylphenyl)-1,2,4-oxadiazol-3-yl]amino}phenyl)-1,2-dihydro-1,6-naphthyridin-2-one]
The IC50 of the first is 3.7-fold higher: 423 nM for the first, 114 nM for the second. The second is the more potent here.

Going from `Cc1cc2c(cn1)cc(-c1cc(Nc3noc(C4(C)CC4)n3)ccc1C)c(=O)n2C` [Compound A34, 1,7-dimethyl-3-(2-methyl-5-(5-(1-methylcyclopropyl)-1,2,4-oxadiazol-3-ylamino)phenyl)-1,6-naphthyridin-2(1H)-one] to `Cc1cc2c(cn1)cc(-c1cc(Nc3noc(C4(CO)CC4)n3)ccc1C)c(=O)n2C` [Compound A69, 3-(5-(5-(1-(hydroxymethyl)cyclopropyl)-1,2,4-oxadiazol-3-ylamino)-2-methylphenyl)-1,7-dimethyl-1,6-naphthyridin-2(1H)-one], the IC50 rises from 83 nM to 148 nM (1.8-fold).

Going from `Cc1cc2c(cn1)cc(-c1cc(Nc3noc(C4Cc5ccccc5O4)n3)ccc1C)c(=O)n2C` (centres unmarked) [Compound A98, 3-(5-{[5-(2,3-dihydro-1-benzofuran-2-yl)-1,2,4-oxadiazol-3-yl]amino}-2-methylphenyl)-1,7-dimethyl-1,2-dihydro-1,6-naphthyridin-2-one] to `Cc1cc2c(cn1)cc(-c1cc(Nc3noc(-c4ccc(Cl)cn4)n3)ccc1C)c(=O)n2C` [Compound A26, 3-(5-{[5-(5-chloropyridin-2-yl)-1,2,4-oxadiazol-3-yl]amino}-2-methylphenyl)-1,7-dimethyl-1,2-dihydro-1,6-naphthyridin-2-one], the IC50 falls from 389 nM to 27 nM (14-fold).

Going from `Cc1cc2c(cn1)cc(-c1cc(Nc3nc(C(C)C)no3)ccc1C)c(=O)n2C` [Compound E3, 3-(5-(3-isopropyl-1,2,4-oxadiazol-5-ylamino)-2-methylphenyl)-1,7-dimethyl-1,6-naphthyridin-2(1H)-one] to `Cc1cc2c(cn1)cc(-c1cc(Nc3nnc(CC(C)C)o3)ccc1C)c(=O)n2C` [Compound B5, 3-(5-(5-isobutyl-1,3,4-oxadiazol-2-ylamino)-2-methylphenyl)-1,7-dimethyl-1,6-naphthyridin-2(1H)-one], the IC50 falls from 181 nM to 108 nM (1.7-fold). The second is the more potent here.
